# What was measured:
# Assay in all cases: cells
# Set-up in all cases: species or system AML cell lines (8); Secondary HTS, 10-point dose-response in triplicate, Cell Titer Glo viability, four-parameter fit EC50
# MOLM-13 = details: Homo sapiens, MOLM-13, 72 h, read-out: MOLM-13
# MV4-11 = details: Homo sapiens, MV4-11, 72 h, read-out: MV4-11
# CHRF288-11 = details: 72 h, read-out: CHRF288-11
# CMK = details: Homo sapiens, CMK, 72 h, read-out: CMK
# CMS = details: 72 h, read-out: CMS
# M07e = details: M-07e, 72 h, read-out: M07e
# ML-2 = details: Homo sapiens, ML-2, 72 h, read-out: ML-2
# U937 = details: Homo sapiens, U-937, 72 h, read-out: U937
EC50 (MOLM-13),EC50 (MV4-11),EC50 (U937),Compound,EC50 (CHRF288-11),EC50 (CMK),EC50 (CMS),EC50 (M07e),EC50 (ML-2)
> 10 µM,> 10 µM,> 10 µM,CC(C)c1nc(N(C)S(C)(=O)=O)nc(-c2ccc(F)cc2)c1/C=C/[C@@H](O)C[C@@H](O)CC(=O)O [ROSUVASTATIN],> 10 µM,> 10 µM,> 10 µM,> 10 µM,> 10 µM
> 10 µM,> 10 µM,> 10 µM,CNCc1ccc(-c2[nH]c3cc(F)cc4c3c2CCNC4=O)cc1 [RUCAPARIB],> 10 µM,> 10 µM,> 10 µM,> 10 µM,> 10 µM
> 10 µM,> 10 µM,> 10 µM,CC(C)=CCC/C(C)=C/CC/C(C)=C/CSc1ccccc1C(=O)O [SALIRASIB],> 10 µM,> 10 µM,> 10 µM,> 10 µM,> 10 µM
> 10 µM,> 10 µM,> 10 µM,CCn1c(=O)c(-c2cc[nH]n2)cc2c(C)nc(N)nc21 [SAR245409],> 10 µM,> 10 µM,> 10 µM,> 10 µM,> 10 µM
> 10 µM,> 10 µM,> 10 µM,NC(=O)c1ccc(-c2nc(-c3ccc4c(c3)OCO4)c(-c3ccccn3)[nH]2)cc1 [SB-431542],> 10 µM,> 10 µM,> 10 µM,> 10 µM,> 10 µM
> 10 µM,> 10 µM,> 10 µM,Nc1ncnc2c1ncn2[C@@H]1O[C@H](C[C@@H](N)CC[C@H](N)C(=O)O)[C@@H](O)[C@H]1O [SINEFUNGIN],> 10 µM,> 10 µM,> 10 µM,> 10 µM,> 10 µM
> 10 µM,> 10 µM,> 10 µM,"O=C1NC(=O)/C(=C/c2cccc(C(F)(F)F)c2)S1 [SJ000006739, SMI-4A]",> 10 µM,> 10 µM,> 10 µM,> 10 µM,> 10 µM
> 10 µM,> 10 µM,> 10 µM,"CCOC(=O)c1cc2ccccc2nc1C [SJ000025189, MC-1626]",> 10 µM,> 10 µM,> 10 µM,> 10 µM,> 10 µM
> 10 µM,> 10 µM,> 10 µM,"Cc1ccc(S(=O)(=O)n2c(N)nc3ccccc32)cc1 [SJ000042554, NODINITIB-1]",> 10 µM,> 10 µM,> 10 µM,> 10 µM,> 10 µM
5.3 µM,> 10 µM,> 10 µM,"O=C(c1ccc(Cl)cc1Cl)n1nnc2ccccc21 [SJ000142379, ITSA1]",6.1 µM,> 10 µM,> 10 µM,> 10 µM,6.2 µM
4.5 µM,> 10 µM,> 10 µM,"Nc1ncn([C@@H]2O[C@H](CO)[C@@H](O)[C@H]2O)c(=O)n1 [SJ000285227, 5-AZACYTIDINE]",> 10 µM,8 µM,6.83 µM,> 10 µM,> 10 µM
> 10 µM,> 10 µM,> 10 µM,"O=C1Nc2ccc(I)cc2/C1=C/c1cc(Br)c(O)c(Br)c1 [SJ000287883, GW 5074]",> 10 µM,> 10 µM,> 10 µM,> 10 µM,> 10 µM
2 µM,> 10 µM,> 10 µM,"O=c1[nH]c2ccccc2c2ccccc12 [SJ000288131, 6(5H)-PHENANTHRIDINONE]",2.3 µM,> 10 µM,> 10 µM,> 10 µM,2.7 µM
> 10 µM,> 10 µM,> 10 µM,"COc1cccc(-c2cc(=O)c3ccccc3o2)c1N [SJ000288145, PD 98059]",> 10 µM,> 10 µM,> 10 µM,> 10 µM,> 10 µM
> 10 µM,> 10 µM,> 10 µM,"N#CC(=C(/N)Sc1ccccc1N)/C(C#N)=C(\N)Sc1ccccc1N [SJ000288250, U0126]",> 10 µM,> 10 µM,> 10 µM,> 10 µM,> 10 µM
0.0056 µM,0.24 µM,0.0372 µM,"CCc1c2c(nc3ccc(O)cc13)-c1cc3c(c(=O)n1C2)COC(=O)[C@]3(O)CC [SJ000311679, SN-38]",0.00949 µM,0.0232 µM,> 10 µM,0.0445 µM,0.00251 µM
> 10 µM,> 10 µM,> 10 µM,"COc1cc2ncnc(-n3nc(-c4ccccn4)nc3N)c2cc1OC [SJ000510891, CP-466722]",> 10 µM,> 10 µM,> 10 µM,0.63 µM,> 10 µM
0.0771 µM,0.042 µM,0.0364 µM,"CC(/C=C/C(=O)NO)=C\[C@@H](C)C(=O)c1ccc(N(C)C)cc1 [SJ000534770, TRICHOSTATIN A]",0.0434 µM,0.047 µM,0.0442 µM,0.09 µM,0.114 µM
7.7 µM,> 10 µM,> 10 µM,"C/C(=C\C(=O)Nc1ccccc1C(=O)O)c1ccc2ccccc2c1 [SJ000565230, BIBR-1532]",5 µM,> 10 µM,> 10 µM,> 10 µM,> 10 µM

Compound,EC50 (MOLM-13),EC50 (MV4-11),EC50 (U937),EC50 (CHRF288-11),EC50 (CMK),EC50 (CMS),EC50 (M07e),EC50 (ML-2)
"CC(C)(C)c1ccc(S(=O)(=O)/C=C/C#N)cc1 [SJ000287676, BAY 11-7085]",1.5 µM,1.4 µM,0.93 µM,1.4 µM,3.9 µM,3.1 µM,3.2 µM,1 µM
"COCCCn1c(N)c(C(=O)NC2CCCC2)c2nc3ccccc3nc21 [SJ000479457, CAY10591]",> 10 µM,> 10 µM,> 10 µM,> 10 µM,> 10 µM,> 10 µM,> 10 µM,> 10 µM
"CO[C@H]1/C=C\C=C(/C)C(=O)NC2=CC(=O)C(NCCN(C)C)=C(C[C@@H](C)C[C@H](OC)[C@H](O)[C@@H](C)/C=C(\C)[C@@H]1OC(N)=O)C2=O [SJ000534765, 17-DMAG]",0.039 µM,0.044 µM,0.025 µM,0.52 µM,0.75 µM,0.092 µM,2 µM,0.046 µM
"COc1cc(N2CCC(N3CCN(C)CC3)CC2)ccc1Nc1ncc(Cl)c(Nc2ccccc2S(=O)(=O)C(C)C)n1 [SJ000565231, NVP-TAE684]",0.29 µM,0.25 µM,> 10 µM,3.6 µM,0.46 µM,> 10 µM,3.8 µM,0.36 µM
"Cc1ccccc1-n1c(Cn2cnc3c(N)ncnc32)nc2cccc(C)c2c1=O [SJ000571308, IC-87114]",> 10 µM,> 10 µM,> 10 µM,> 10 µM,> 10 µM,> 10 µM,> 10 µM,> 10 µM

# Source: article PMC6522510 (Nature Communications, 2019)
